Assay results reported in patent US11191746B2, “Composition for inhibiting a growth of cancer stem cells comprising ciclesonide” (JEJU NATIONAL UNIVERSITY INDUSTRY-ACADEMIC COOPERATION …, priority 2016, dated 2021).

What was measured:
Assay type in all cases: cell-based, human
[1] = system: MCF-7 cell-derived mammospheres; assay: Mammosphere formation; conditions: MCF-7 mammospheres, 80 μM
Experimental: (§1) Human breast cancer cells, MCF-7, were obtained from American Type Culture Collection (ATCC; Manassas, Va., USA). MCF-7 cells and MDA-MB-231 cells were cultured in Dulbecco's Modified Essential Medium (DMEM; Hyclone, Logan, Utah, USA) containing 10% fetal bovine serum (FBS; Hyclone), 100 U/ml of penicillin, and 100 μg/ml of streptomycin (Hyclone). The MCF-7 cells were maintained in a humidified incubator containing 5% CO2 at 37° C. The cells were plated in 10 cm culture dishes at a density of 1×10^6 cells. To establish primary mammospheres, single cell-suspended MCF-7 cells were inoculated into ultra-low attachment 6-well plates containing 2 ml of complete MammoCult™ medium (StemCell Technologies, Vancouver, BC, Canada) at a density of 3.5 to 4×10^4 cells/well. The complete MammoCult™ medium was supplemented with 4 μg/ml of heparin, 0.48 μg/ml of hydrocortisone, 100 U/ml of penicillin, and 100 μg/ml of streptomycin. The cells were incubated in a 5% CO2 incubator at 37° C. for 7 days.
(§2) On day 10 of culture, cell culture plates were placed on a scanner (Epson Perfection V700 PHOTO, Epson Korea, Co, Seoul, Korea) to obtain 8-bit gray scale images of mammospheres. The images were acquired using a NICE software program downloaded from ftp://ftp.nist.gov/pub/physics/mlclarke/NICE at a low resolution of 300 dpi. For counting, a desired number of rows and columns (e.g., 2×3 for a 6-well plate) were selected to generate ROIs and after selecting the elliptical setting of the NICE program, the individual ROIs were defined by adjusting the movement and size of the provided ROI shapes. The background signals of the images were negated using a threshold algorithm, and the selected images were automatically counted. To analyze the formation of mammospheres, mammosphere formation efficiency (MFE, %) was determined by the following equation: MFE (%)=the number of mammospheres per well/a total number of plated cells per well×100.

[2] = system: MDA-MB-231 cell-derived mammospheres; assay: Mammosphere formation; conditions: MDA-MB-231 mammospheres, 80 μM
Experimental: as §1, §2

[3] = system: A549 cell-derived tumorspheres; assay: Tumorsphere formation; conditions: A549 tumorspheres
Experimental: Human lung cancer cells, A549, were cultured under the same culture conditions as those for the breast cancer cells of Example 2-1. To establish primary tumorspheres, single cell-suspended A549 cells were inoculated into ultra-low attachment 6-well plates containing 2 ml of Cancer Stem Premium medium (ProMab Biotechnologies Inc, Richmond, Calif., USA) at a density of 5×10^4 cells/well. The cells were incubated in a 5% CO2 incubator at 37° C. for 10 days.
Lung cancer tumorspheres were counted in the same manner as in Example 3-1, and for the analysis of tumorsphere formation, tumorsphere formation efficiency (TFE, %) was determined by the following equation: TFE (%)=number of tumorspheres per well/total number of plated cells per well×100.

Molecule	growth of breast cancer stem cells [1]	growth of breast cancer stem cells [2]	lung cancer stem cell inhibitory activity ([3]; 80 μM)	lung cancer stem cell inhibitory activity ([3]; 5 μM and 10 μM)
C[C@]12C=CC(=O)C=C1CC[C@@H]1[C@@H]2C(=O)C[C@@]2(C)[C@H]1CC[C@]2(O)C(=O)CO [prednisone]	unable to inhibit	unable to inhibit	did not exhibit a lung cancer stem cell inhibitory activity	–
isobutyryl ciclesonide	–	–	–	exhibited a lung cancer stem cell inhibitory activity
